Patent US5444085A, “Methods of inhibiting HIV and inhibiting the activation of HIV” (Warner-Lambert Company, priority 1994, dated 1995)

Key:
[1] = test system: OM-10.1 cells (HIV-1 activation); assay: Supernatant reverse transcriptase activity / HIV-1 activation in OM-10.1 cultures pretreated with test compound then TNF-α induced (Example 1); format: cell-based; conditions: for stimulation index (SI) value of the reverse transcriptase activity: TNF-α treated vs non-TNF-α medium culture
Excerpt: The cellular pathways involved in mediating the activating signal from the plasma membrane to the integrated virus, resulting in HIV-1 expression, are much less clear. Recently, the development of a reliable and simple system for evaluating compounds that could prevent activation of latent HIV was reported at the National […] (NCDDG)/AIDS by P. Feorino, S. T. Butera, T. M. Folks, and R. F. Schinazi, San Diego, Calif., Nov. 3-7, 1991. […] The expression of CD4+ on the cell surface and the activity of reverse transcriptase are used as markers for quantitating viral expression. Alternatively, other HIV markers, such as protease activity, which are known to those of skill in the art can be used. OM-10.1 cells remain CD4^+ until viral activation and respond to tumor necrosis factor induction, and therefore, these cultures are used to conveniently and rapidly examine pharmacologics for an ability to prevent CD4^+ down modulation (decrease in expression of CD4^+ on the cell surface) and HIV-1 expression.
Example 1 was performed as described by Butera ST, et al., J. Virol. 1991;65:4645-4653. Test compounds were first dissolved in 100% DMSO to the indicated stock concentrations below in Table I. The stock solution was then diluted in tissue culture starting at 1:100(10/-2) and proceeding on as indicated.
OM-10.1 cells were then pretreated for 4 hours with the test compounds prior to TNF-α induction. TNF-α was added at 20 U/ml and induced cells were examined at 24 hours for evidence of surface CD4 down-modulation, as an indication of viral activation. Cells were also harvested after 24 hours of TNF-α induction for drug toxicity, being labeled with ^3 H thymidine during the final 18 hours in culture. At […], cell-free culture supernatant was collected for reverse transcriptase determination, as a further verification of the extent of HIV-1 activation. CD4 surface staining for flow cytometry and reverse transcriptase analysis were performed as described.

[2] = test system: OM-10.1 cells; assay: Return to latency of TNF-α pre-activated OM-10.1 cells, percent CD4-positive cells by flow cytometry (Example 2); format: cell-based
Description: Moreover, in Example 2 the experiment was extended through 96 hours after the removal of TNF-α.

[3] = test system: OM-10.1 cells (HIV-1 activation); conditions: poster Nov. 3-7 1991; cited from earlier work
[4] = test system: HIV-infected cells; conditions: Hamamoto et al. 1989; cited from earlier work

COc1ccc2c(c1)c(OC(C)C)c(C(N)=O)[s+]2[O-] (stereo not drawn) [Test Compound B, 5-methoxy-3-(1-methylethoxy)benzothiophene-2-carboxamide-, 1-oxide]
inhibition at 0.035 µM ([1]; Human immunodeficiency virus 1, dilution 1:10 6 (A 19.5 nM; B 35.0 nM), TNF-α 20 U/ml, read-out: percent inhibition of the reverse transcriptase activity): 0%
inhibition at 17.75 µM ([1]; Human immunodeficiency virus 1, dilution 1:2000 (A 10.0 μM; B 17.75 μM), TNF-α 20 U/ml, read-out: percent inhibition of the reverse transcriptase activity): 72.9%
inhibition at 8.88 µM ([1]; Human immunodeficiency virus 1, dilution 1:4000 (A 5.0 μM; B 8.88 μM), TNF-α 20 U/ml, read-out: percent inhibition of the reverse transcriptase activity): 44%
inhibition at 4.44 µM ([1]; Human immunodeficiency virus 1, dilution 1:8000 (A 2.5 μM; B 4.44 μM), TNF-α 20 U/ml, read-out: percent inhibition of the reverse transcriptase activity): 26.4%
inhibition at 2.22 µM ([1]; Human immunodeficiency virus 1, dilution 1:16,000 (A 1.25 μM; B 2.22 μM), TNF-α 20 U/ml, read-out: percent inhibition of the reverse transcriptase activity): 18.2%
inhibition at 1.11 µM ([1]; Human immunodeficiency virus 1, dilution 1:32,000 (A 0.62 μM; B 1.11 μM), TNF-α 20 U/ml, read-out: percent inhibition of the reverse transcriptase activity): 19.6%
inhibition at 0.55 µM ([1]; Human immunodeficiency virus 1, dilution 1:64,000 (A 0.31 μM; B 0.55 μM), TNF-α 20 U/ml, read-out: percent inhibition of the reverse transcriptase activity): 0.68%
inhibition at 0.28 µM ([1]; Human immunodeficiency virus 1, dilution 1:128,000 (A 0.16 μM; B 0.28 μM), TNF-α 20 U/ml, read-out: percent inhibition of the reverse transcriptase activity): 3.67%
inhibition at 0.14 µM ([1]; Human immunodeficiency virus 1, dilution 1:256,000 (A 78.0 nM; B 0.14 μM), TNF-α 20 U/ml, read-out: percent inhibition of the reverse transcriptase activity): 11.5%
inhibition at 0.07 µM ([1]; Human immunodeficiency virus 1, dilution 1:512,000 (A 39.0 nM; B 70.0 nM), TNF-α 20 U/ml, read-out: percent inhibition of the reverse transcriptase activity): 1.55%
anti-induction activity in the OM-10.1 cell system ([1]; TNF-α induced): appeared to have anti-induction activity
inhibition of HIV-1 activation ([1]; concentrations between 10 and 1 μM): effective at substantially inhibiting HIV-1 activation
mean reverse transcriptase cpm values ([1]; dilution 1:10 6 (A 19.5 nM; B 35.0 nM), TNF-α 20 U/ml): 30,025 cpm
stimulation index (SI) value of the reverse transcriptase activity ([1]; dilution 1:10 6 (A 19.5 nM; B 35.0 nM)): 8.28
mean reverse transcriptase cpm values ([1]; dilution 1:2000 (A 10.0 μM; B 17.75 μM), TNF-α 20 U/ml): 7,725 cpm
stimulation index (SI) value of the reverse transcriptase activity ([1]; dilution 1:2000 (A 10.0 μM; B 17.75 μM)): 2.13
mean reverse transcriptase cpm values ([1]; dilution 1:4000 (A 5.0 μM; B 8.88 μM), TNF-α 20 U/ml): 15,984 cpm
stimulation index (SI) value of the reverse transcriptase activity ([1]; dilution 1:4000 (A 5.0 μM; B 8.88 μM)): 4.41
mean reverse transcriptase cpm values ([1]; dilution 1:8000 (A […]; B 4.44 μM), TNF-α 20 U/ml): 21,009 cpm
stimulation index (SI) value of the reverse transcriptase activity ([1]; dilution 1:8000 (A […]; B 4.44 μM)): 5.80
mean reverse transcriptase cpm values ([1]; dilution 1:16,000 (A 1.25 μM; B 2.22 μM), TNF-α 20 U/ml): 23,336 cpm
stimulation index (SI) value of the reverse transcriptase activity ([1]; dilution 1:16,000 (A 1.25 μM; B 2.22 μM)): 6.44
mean reverse transcriptase cpm values ([1]; dilution 1:32,000 (A 0.62 μM; B 1.11 μM), TNF-α 20 U/ml): 22,931 cpm
stimulation index (SI) value of the reverse transcriptase activity ([1]; dilution 1:32,000 (A 0.62 μM; B 1.11 μM)): 6.33
mean reverse transcriptase cpm values ([1]; dilution 1:64,000 (A 0.31 μM; B 0.55 μM), TNF-α 20 U/ml): 28,334 cpm
stimulation index (SI) value of the reverse transcriptase activity ([1]; dilution 1:64,000 (A 0.31 μM; B 0.55 μM)): 7.82
mean reverse transcriptase cpm values ([1]; dilution 1:128,000 (A 0.16 μM; B 0.28 μM), TNF-α 20 U/ml): 27,480 cpm
stimulation index (SI) value of the reverse transcriptase activity ([1]; dilution 1:128,000 (A 0.16 μM; B 0.28 μM)): 7.58
mean reverse transcriptase cpm values ([1]; dilution 1:256,000 (A 78.0 nM; B 0.14 μM), TNF-α 20 U/ml): 25,257 cpm
stimulation index (SI) value of the reverse transcriptase activity ([1]; dilution 1:256,000 (A 78.0 nM; B 0.14 μM)): 6.97
mean reverse transcriptase cpm values ([1]; dilution 1:512,000 (A 39.0 nM; B 70.0 nM), TNF-α 20 U/ml): 28,085 cpm
stimulation index (SI) value of the reverse transcriptase activity ([1]; dilution 1:512,000 (A 39.0 nM; B 70.0 nM)): 7.75
percent CD4-positive cells ([2]; 0.5 μM, 24 hours): 5.3%
percent CD4-positive cells ([2]; 0.5 μM, 48 hours): 20.6%
percent CD4-positive cells ([2]; 0.5 μM, 72 hours): 47.9%
percent CD4-positive cells ([2]; 0.5 μM, 96 hours): 75.1%
percent CD4-positive cells ([2]; 0.5 μM, T-0 (after 24 hours TNF-α, before compound)): 4.0%
percent CD4-positive cells ([2]; 0.5 μM, T-24 (baseline, before TNF-α and compound)): 89.0%
percent CD4-positive cells ([2]; 10 μM, 24 hours): 33.5%
percent CD4-positive cells ([2]; 10 μM, 48 hours): 96.5%
percent CD4-positive cells ([2]; 10 μM, 72 hours): 97.6%
percent CD4-positive cells ([2]; 10 μM, 96 hours): 98.7%
percent CD4-positive cells ([2]; 10 μM, T-0 (after 24 hours TNF-α, before compound)): 4.0%
percent CD4-positive cells ([2]; 10 μM, T-24 (baseline, before TNF-α and compound)): 89.0%

Cc1cn([C@H]2C[C@H](F)[C@@H](CO)O2)c(=O)[nH]c1=O [3'-fluoro-3'-deoxythymidine (FLT), 3'-fluoro-3'-deoxythymidine]
inhibition of the activation of HIV-1 [3]: modest inhibitors of the activation of HIV-1

CC(=O)N(O)CCCCCNC(=O)CCC(=O)N(O)CCCCCNC(=O)CCC(=O)N(O)CCCCCN [desferrioxamine]
inhibition of the activation of HIV-1 [3]: modest inhibitors of the activation of HIV-1

CCCCCCCCCCCCCC(=O)O[C@@H]1[C@@H](C)[C@@]2(O)[C@@H](C=C(CO)C[C@]3(O)C(=O)C(C)=C[C@@H]23)[C@@H]2C(C)(C)[C@]12OC(C)=O [12-O-tetradecanoyl-phorbol-13-acetate]
CD4 down regulation and viral expression [4]: mediates CD4 down regulation and viral expression in HIV-infected cells

B1: interferon Y: interferon Y (protein, UniProt P01579 24-161, looked up)
Interferon gamma: QDPYVKEAENLKKYFNAGHSDVADNGTLFLGILKNWKEESDRKIMQSQIVSFYFKLFKNFKDDQSIQKSVETIKEDMNVKFFNSNKKKRDDFEKLTNYSVTDLNVQRKAIHELIQVMAELSPAAKTGKRKRSQMLFRG
inhibition of the activation of HIV-1 [3]: modest inhibitors of the activation of HIV-1
